Results from US9499550B2 (BRISTOL-MYERS SQUIBB COMPANY, priority 2012, dated 2016).
pEC50: −log10 of the molar value.

Experiments:
[1] = tested on: HCV genotype 1a (H77 strain) replicon in HUH-7 cells; test: HCV replicon luciferase reporter assay, genotype 1a; type: cell-based; settings: Hepatitis C virus, Huh-7, 72 h, HCV genotype 1a replicon luciferase assay, 3 days incubation, range class, read-out: LE_1a (EC50, range)
Summary of the method: (§1)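 Replicon inhibition for both genotypes was measured as Renilla luciferase signal (EnduRen, 7.5 μM final, 2 h) after 3-day, 37° C exposure of replicon-bearing HUH-7 cells in 4% FCS DMEM, 0.5% DMSO. The 1b construct carries S1179I; the 1a H77 construct carries P1496L and S2204I. Twenty-point, 3-fold dilutions were fitted four-parametrically for EC50, and CC50 was taken from multiplexed Cell Titer-Blue.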

[2] = tested on: HCV genotype 1b (Con1) replicon in HUH-7 cells; test: HCV replicon luciferase reporter assay, genotype 1b; type: cell-based; settings: Hepatitis C virus, Huh-7, 72 h, HCV genotype 1b replicon luciferase assay, 3 days incubation, range class, read-out: LE_1b (EC50, range)
Summary of the method: as §1

Row | SMILES | pEC50 [1] | pEC50 [2]
1 | COc1ccc2c(O[C@@H]3C[C@H]4C(=O)N[C@]5(C(=O)NS(=O)(=O)C6(C)CC6)C[C@H]5/C=C\CC[C@@H](C)C[C@@H](C)[C@H](NC(=O)O[C@@H]5C[C@@H]6C[C@@H]6C5)C(=O)N4C3)nc(N3CCOCC3)cc2c1 [Compound 3097, (1R,3r,5S)-bicyclo[3.1.0]hexan-3-yl((2R,6S,7R,9R,13aS,14aR,16aS,Z)-2-((6-methoxy-3-morpholinoisoquinolin-1-yl)oxy)-7,9-dimethyl-14a-(((1-methylcyclopropyl)sulfonyl)carbamoyl)-5,16-dioxo-1,2,3,5,6,7,8,9,10,11,13a,14,14a,15,16,16a-hexadecahydrocyclopropa[e]pyrrolo[1,2-a][1,4]diazacyclopentadecin-6-yl)carbamate] | > 8.26 | > 8.26
2 | COc1ccc2c(O[C@@H]3C[C@H]4C(=O)N[C@]5(C(=O)NS(=O)(=O)C6CC6)C[C@H]5/C=C\CC[C@H](C)C[C@@H](C)[C@H](NC(=O)OC(C)(C)C(F)(F)F)C(=O)N4C3)nc(N3CCOCC3)cc2c1 [Compound 3098, 1,1,1-trifluoro-2-methylpropan-2-yl((2R,6S,7R,9S,13aS,14aR,16aS,Z)-14a-((cyclopropylsulfonyl)carbamoyl)-2-((6-methoxy-3-morpholinoisoquinolin-1-yl)oxy)-7,9-dimethyl-5,16-dioxo-1,2,3,5,6,7,8,9,10,11,13a,14,14a,15,16,16a-hexadecahydrocyclopropa[e]pyrrolo[1,2-a][1,4]diazacyclopentadecin-6-yl)carbamate] | > 8.26 | > 8.26
3 | COc1ccc2c(O[C@@H]3C[C@H]4C(=O)N[C@]5(C(=O)NS(=O)(=O)C6CC6)C[C@H]5/C=C\CC[C@@H](C)C[C@@H](C)[C@H](NC(=O)OC(C)(C)C(F)(F)F)C(=O)N4C3)nc(N3CCOCC3)cc2c1 [Compound 3099, 1,1,1-trifluoro-2-methylpropan-2-yl((2R,6S,7R,9R,13aS,14aR,16aS,Z)-14a-((cyclopropylsulfonyl)carbamoyl)-2-((6-methoxy-3-morpholinoisoquinolin-1-yl)oxy)-7,9-dimethyl-5,16-dioxo-1,2,3,5,6,7,8,9,10,11,13a,14,14a,15,16,16a-hexadecahydrocyclopropa[e]pyrrolo[1,2-a][1,4]diazacyclopentadecin-6-yl)carbamate] | > 8.26 | > 8.26
4 | [2H]C([2H])([2H])C(OC(=O)N[C@@H]1C(=O)N2C[C@H](Oc3nc(N4CCOCC4)cc4cc(OC)ccc34)C[C@H]2C(=O)N[C@]2(C(=O)NS(=O)(=O)C3CC3)C[C@H]2/C=C\CC[C@H](C)C[C@H]1C)(C([2H])([2H])[2H])C(F)(F)F [Compound 3100, 1,1,1,3,3,3-hexadeutero-2-(trifluoromethyl)propan-2-yl((2R,6S,7R,9S,13aS,14aR,16aS,Z)-14a-((cyclopropylsulfonyl)carbamoyl)-2-((6-methoxy-3-morpholinoisoquinolin-1-yl)oxy)-7,9-dimethyl-5,16-dioxo-1,2,3,5,6,7,8,9,10,11,13a,14,14a,15,16,16a-hexadecahydrocyclopropa[e]pyrrolo[1,2-a][1,4]diazacyclopentadecin-6-yl)carbamate] | > 8.26 | > 8.26
5 | [2H]C([2H])([2H])C(OC(=O)N[C@@H]1C(=O)N2C[C@H](Oc3nc(N4CCOCC4)cc4cc(OC)ccc34)C[C@H]2C(=O)N[C@]2(C(=O)NS(=O)(=O)C3CC3)C[C@H]2/C=C\CC[C@@H](C)C[C@H]1C)(C([2H])([2H])[2H])C(F)(F)F [Compound 3101, 1,1,1,3,3,3-hexadeutero-2-(trifluoromethyl)propan-2-yl((2R,6S,7R,9R,13aS,14aR,16aS,Z)-14a-((cyclopropylsulfonyl)carbamoyl)-2-((6-methoxy-3-morpholinoisoquinolin-1-yl)oxy)-7,9-dimethyl-5,16-dioxo-1,2,3,5,6,7,8,9,10,11,13a,14,14a,15,16,16a-hexadecahydrocyclopropa[e]pyrrolo[1,2-a][1,4]diazacyclopentadecin-6-yl)carbamate] | > 8.26 | > 8.26
